{"source": "the supplement of paper PMC10883282", "test_system": "HS729", "assay": "relative viability vs DMSO control (72 h) (fraction); higher = more viable cells", "how_it_was_run": "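After seeding at densities set for 80–90% confluence in 384-well plates, sarcoma cell lines waited 24 h before 2.5 µl of serially diluted compound was added. Source plates held 10 mM down to 0.0002 mM. Plates were incubated 72 h at 37 °C with 5% CO2, with 0.1% DMSO vehicle and a 5 µM positive control, and relative viability was taken from ATPLite as percent growth averaged over up to triplicate wells, with 1 set as full and 0 as none.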", "note": "± gives the standard deviation of the averaged measurements."}
{"smiles": "CC1(C)CNc2cc(NC(=O)c3cccnc3NCc3ccncc3)ccc21", "note": "[Motesanib]", "values": [{"measurement": "relative viability", "setting": "0.00017 µM", "result": "0.999 ± 0.075"}, {"measurement": "relative viability", "setting": "0.00051 µM", "result": "1.03 ± 0.077"}, {"measurement": "relative viability", "setting": "0.00152 µM", "result": "1 ± 0.077"}, {"measurement": "relative viability", "setting": "0.00457 µM", "result": "1 ± 0.043"}, {"measurement": "relative viability", "setting": "0.01372 µM", "result": "0.992 ± 0.037"}, {"measurement": "relative viability", "setting": "0.04115 µM", "result": "1.03 ± 0.064"}, {"measurement": "relative viability", "setting": "0.1235 µM", "result": "0.955 ± 0.073"}, {"measurement": "relative viability", "setting": "0.3704 µM", "result": "0.932 ± 0.046"}, {"measurement": "relative viability", "setting": "1.111 µM", "result": "0.872 ± 0.051"}, {"measurement": "relative viability", "setting": "3.333 µM", "result": "0.828 ± 0.019"}, {"measurement": "relative viability", "setting": "10 µM", "result": "0.779 ± 0.065"}]}
{"smiles": "C=CC(=O)Nc1cccc(Oc2nc(Nc3ccc(N4CCN(C)CC4)cc3)nc3ccsc23)c1", "note": "[Olmutinib]", "values": [{"measurement": "relative viability", "setting": "0.00017 µM", "result": "1.02 ± 0.095"}, {"measurement": "relative viability", "setting": "0.00051 µM", "result": "1.03 ± 0.1"}, {"measurement": "relative viability", "setting": "0.00152 µM", "result": "0.996 ± 0.094"}, {"measurement": "relative viability", "setting": "0.00457 µM", "result": "0.988 ± 0.07"}, {"measurement": "relative viability", "setting": "0.01372 µM", "result": "0.922 ± 0.05"}, {"measurement": "relative viability", "setting": "0.04115 µM", "result": "0.968 ± 0.11"}, {"measurement": "relative viability", "setting": "0.1235 µM", "result": "0.958 ± 0.093"}, {"measurement": "relative viability", "setting": "0.3704 µM", "result": "0.904 ± 0.097"}, {"measurement": "relative viability", "setting": "1.111 µM", "result": "0.925 ± 0.079"}, {"measurement": "relative viability", "setting": "3.333 µM", "result": "0.887 ± 0.051"}, {"measurement": "relative viability", "setting": "10 µM", "result": "0.713 ± 0.059"}]}
{"smiles": "COc1cc2nccc(Oc3ccc(NC(=O)Nc4cc(C)on4)c(Cl)c3)c2cc1OC", "note": "[Tivozanib]", "values": [{"measurement": "relative viability", "setting": "0.00017 µM", "result": "0.898 ± 0.058"}, {"measurement": "relative viability", "setting": "0.00051 µM", "result": "0.883 ± 0.018"}, {"measurement": "relative viability", "setting": "0.00152 µM", "result": "0.9572 ± 0.0089"}, {"measurement": "relative viability", "setting": "0.00457 µM", "result": "0.923 ± 0.046"}, {"measurement": "relative viability", "setting": "0.01372 µM", "result": "0.921 ± 0.052"}, {"measurement": "relative viability", "setting": "0.04115 µM", "result": "0.882 ± 0.017"}, {"measurement": "relative viability", "setting": "0.1235 µM", "result": "0.869 ± 0.043"}, {"measurement": "relative viability", "setting": "0.3704 µM", "result": "0.891 ± 0.044"}, {"measurement": "relative viability", "setting": "1.111 µM", "result": "0.894 ± 0.05"}, {"measurement": "relative viability", "setting": "3.333 µM", "result": "0.817 ± 0.0084"}, {"measurement": "relative viability", "setting": "10 µM", "result": "0.722 ± 0.02"}]}
{"smiles": "CNC(=O)c1cc(Oc2ccc(NC(=O)Nc3ccc(Cl)c(C(F)(F)F)c3)c(F)c2)ccn1", "note": "[Regorafenib]", "values": [{"measurement": "relative viability", "setting": "0.00017 µM", "result": "1.08 ± 0.027"}, {"measurement": "relative viability", "setting": "0.00051 µM", "result": "1.07 ± 0.04"}, {"measurement": "relative viability", "setting": "0.00152 µM", "result": "1.03 ± 0.048"}, {"measurement": "relative viability", "setting": "0.00457 µM", "result": "1.02 ± 0.046"}, {"measurement": "relative viability", "setting": "0.01372 µM", "result": "0.945 ± 0.093"}, {"measurement": "relative viability", "setting": "0.04115 µM", "result": "0.9469 ± 0.0076"}, {"measurement": "relative viability", "setting": "0.1235 µM", "result": "0.98 ± 0.069"}, {"measurement": "relative viability", "setting": "0.3704 µM", "result": "0.845 ± 0.014"}, {"measurement": "relative viability", "setting": "1.111 µM", "result": "0.824 ± 0.039"}, {"measurement": "relative viability", "setting": "3.333 µM", "result": "0.809 ± 0.014"}, {"measurement": "relative viability", "setting": "10 µM", "result": "0.651 ± 0.014"}]}
{"smiles": "Cc1ccc(F)c(NC(=O)Nc2ccc(-c3cccc4[nH]nc(N)c34)cc2)c1", "note": "[Linifanib]", "values": [{"measurement": "relative viability", "setting": "0.00017 µM", "result": "1.02 ± 0.065"}, {"measurement": "relative viability", "setting": "0.00051 µM", "result": "0.958 ± 0.072"}, {"measurement": "relative viability", "setting": "0.00152 µM", "result": "0.937 ± 0.052"}, {"measurement": "relative viability", "setting": "0.00457 µM", "result": "0.943 ± 0.077"}, {"measurement": "relative viability", "setting": "0.01372 µM", "result": "0.958 ± 0.052"}, {"measurement": "relative viability", "setting": "0.04115 µM", "result": "0.896 ± 0.033"}, {"measurement": "relative viability", "setting": "0.1235 µM", "result": "0.83 ± 0.033"}, {"measurement": "relative viability", "setting": "0.3704 µM", "result": "0.783 ± 0.018"}, {"measurement": "relative viability", "setting": "1.111 µM", "result": "0.7353 ± 0.0054"}, {"measurement": "relative viability", "setting": "3.333 µM", "result": "0.762 ± 0.049"}, {"measurement": "relative viability", "setting": "10 µM", "result": "0.689 ± 0.055"}]}
{"smiles": "Cc1cnc(Nc2ccc(OCCN3CCCC3)cc2)nc1Nc1cccc(S(=O)(=O)NC(C)(C)C)c1", "note": "[Fedratinib]", "values": [{"measurement": "relative viability", "setting": "0.00017 µM", "result": "1.03 ± 0.038"}, {"measurement": "relative viability", "setting": "0.00051 µM", "result": "0.948 ± 0.033"}, {"measurement": "relative viability", "setting": "0.00152 µM", "result": "0.99 ± 0.02"}, {"measurement": "relative viability", "setting": "0.00457 µM", "result": "0.928 ± 0.047"}, {"measurement": "relative viability", "setting": "0.01372 µM", "result": "0.924 ± 0.05"}, {"measurement": "relative viability", "setting": "0.04115 µM", "result": "0.888 ± 0.021"}, {"measurement": "relative viability", "setting": "0.1235 µM", "result": "0.805 ± 0.033"}, {"measurement": "relative viability", "setting": "0.3704 µM", "result": "0.649 ± 0.026"}, {"measurement": "relative viability", "setting": "1.111 µM", "result": "0.497 ± 0.0061"}, {"measurement": "relative viability", "setting": "3.333 µM", "result": "0.263 ± 0.025"}, {"measurement": "relative viability", "setting": "10 µM", "result": "0.0101 ± 0.0019"}]}
{"smiles": "C=CC(=O)N1CCC([C@@H]2CCNc3c(C(N)=O)c(-c4ccc(Oc5ccccc5)cc4)nn32)CC1", "note": "[Zanubrutinib]", "values": [{"measurement": "relative viability", "setting": "0.00017 µM", "result": "1.06 ± 0.046"}, {"measurement": "relative viability", "setting": "0.00051 µM", "result": "1.07 ± 0.06"}, {"measurement": "relative viability", "setting": "0.00152 µM", "result": "1.05 ± 0.061"}, {"measurement": "relative viability", "setting": "0.00457 µM", "result": "1.05 ± 0.072"}, {"measurement": "relative viability", "setting": "0.01372 µM", "result": "1.06 ± 0.082"}, {"measurement": "relative viability", "setting": "0.04115 µM", "result": "1.04 ± 0.099"}, {"measurement": "relative viability", "setting": "0.1235 µM", "result": "1.06 ± 0.062"}, {"measurement": "relative viability", "setting": "0.3704 µM", "result": "1.03 ± 0.095"}, {"measurement": "relative viability", "setting": "1.111 µM", "result": "0.961 ± 0.094"}, {"measurement": "relative viability", "setting": "3.333 µM", "result": "1.02 ± 0.074"}, {"measurement": "relative viability", "setting": "10 µM", "result": "0.873 ± 0.077"}]}
{"smiles": "CN1CCC(COc2cnc(-c3cccc(Cn4nc(-c5cccc(C#N)c5)ccc4=O)c3)nc2)CC1", "note": "[Tepotinib]", "values": [{"measurement": "relative viability", "setting": "0.00017 µM", "result": "1.04 ± 0.054"}, {"measurement": "relative viability", "setting": "0.00051 µM", "result": "1 ± 0.048"}, {"measurement": "relative viability", "setting": "0.00152 µM", "result": "0.988 ± 0.034"}, {"measurement": "relative viability", "setting": "0.00457 µM", "result": "0.983 ± 0.041"}, {"measurement": "relative viability", "setting": "0.01372 µM", "result": "0.941 ± 0.057"}, {"measurement": "relative viability", "setting": "0.04115 µM", "result": "0.928 ± 0.055"}, {"measurement": "relative viability", "setting": "0.1235 µM", "result": "0.987 ± 0.027"}, {"measurement": "relative viability", "setting": "0.3704 µM", "result": "0.894 ± 0.02"}, {"measurement": "relative viability", "setting": "1.111 µM", "result": "0.926 ± 0.038"}, {"measurement": "relative viability", "setting": "3.333 µM", "result": "0.831 ± 0.029"}, {"measurement": "relative viability", "setting": "10 µM", "result": "0.829 ± 0.035"}]}
{"smiles": "Cc1nc(NC(=O)N2CCC[C@H]2C(N)=O)sc1-c1ccnc(C(C)(C)C(F)(F)F)c1", "note": "[Alpelisib]", "values": [{"measurement": "relative viability", "setting": "0.00017 µM", "result": "1 ± 0.028"}, {"measurement": "relative viability", "setting": "0.00051 µM", "result": "0.935 ± 0.034"}, {"measurement": "relative viability", "setting": "0.00152 µM", "result": "0.922 ± 0.087"}, {"measurement": "relative viability", "setting": "0.00457 µM", "result": "0.884 ± 0.042"}, {"measurement": "relative viability", "setting": "0.01372 µM", "result": "0.838 ± 0.026"}, {"measurement": "relative viability", "setting": "0.04115 µM", "result": "0.785 ± 0.067"}, {"measurement": "relative viability", "setting": "0.1235 µM", "result": "0.745 ± 0.06"}, {"measurement": "relative viability", "setting": "0.3704 µM", "result": "0.68 ± 0.041"}, {"measurement": "relative viability", "setting": "1.111 µM", "result": "0.577 ± 0.024"}, {"measurement": "relative viability", "setting": "3.333 µM", "result": "0.536 ± 0.039"}, {"measurement": "relative viability", "setting": "10 µM", "result": "0.445 ± 0.0061"}]}
